Reference: PMC4778445, “Measurement of free glucocorticoids: quantifying corticosteroid-binding globulin binding affinity and its variation within and among mammalian species” (Conservation Physiology, 2015)

Columns and labels:
Experiment in all cases: radioligand saturation binding, dextran-coated charcoal separation
[1] = biological target: T1, corticosteroid-binding globulin (CBG), meadow vole (Microtus pennsylvanicus, UniProt Z9TXB6IQC5); conditions: labelled compound ([1,2,6,7-3H]corticosterone); 37 °C, ≥4 h, PBS with gelatin; separation at 0 °C; plasma 1/50; mean of two runs; error SEM
T1 construct: native protein in charcoal-stripped plasma, not purified
T1 sequence (Z9TXB6IQC5 21-398): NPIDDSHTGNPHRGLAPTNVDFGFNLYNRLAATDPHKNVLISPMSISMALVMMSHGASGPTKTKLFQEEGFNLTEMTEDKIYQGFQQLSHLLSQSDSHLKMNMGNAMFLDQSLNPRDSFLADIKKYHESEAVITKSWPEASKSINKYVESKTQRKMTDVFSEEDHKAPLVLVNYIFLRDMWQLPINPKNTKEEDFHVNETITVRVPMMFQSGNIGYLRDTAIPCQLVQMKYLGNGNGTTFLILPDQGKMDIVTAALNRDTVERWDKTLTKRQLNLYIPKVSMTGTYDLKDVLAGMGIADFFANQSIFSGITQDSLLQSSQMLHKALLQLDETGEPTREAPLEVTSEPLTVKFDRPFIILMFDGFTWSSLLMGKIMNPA
Excerpt: radioligand saturation binding, dextran-coated charcoal separation on corticosteroid-binding globulin (CBG), meadow vole

[2] = biological target: T2, corticosteroid-binding globulin (CBG), deer mouse (Peromyscus maniculatus, UniProt A0A6J0EC89); conditions: labelled compound ([1,2,6,7-3H]corticosterone); 37 °C, ≥4 h, PBS with gelatin; separation at 0 °C; plasma 1/200; error SEM
T2 construct: gene Serpina6; native protein in charcoal-stripped plasma, not purified
T2 sequence (A0A6J0EC89 23-402): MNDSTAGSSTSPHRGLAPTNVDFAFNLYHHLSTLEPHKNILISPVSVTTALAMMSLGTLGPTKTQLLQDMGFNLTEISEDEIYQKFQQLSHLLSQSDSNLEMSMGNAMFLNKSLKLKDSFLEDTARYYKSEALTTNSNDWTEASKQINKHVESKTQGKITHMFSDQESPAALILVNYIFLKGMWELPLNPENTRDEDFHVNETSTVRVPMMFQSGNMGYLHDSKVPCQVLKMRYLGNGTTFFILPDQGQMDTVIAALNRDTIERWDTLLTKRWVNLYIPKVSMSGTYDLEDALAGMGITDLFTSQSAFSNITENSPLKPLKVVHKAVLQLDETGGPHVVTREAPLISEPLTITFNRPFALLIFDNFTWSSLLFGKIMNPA
Excerpt: radioligand saturation binding, dextran-coated charcoal separation on corticosteroid-binding globulin (CBG), deer mouse

[3] = biological target: T3, corticosteroid-binding globulin (CBG), Arctic ground squirrel (Urocitellus parryii, UniProt A0A8D2GQE2); conditions: labelled compound ([1,2,6,7-3H]cortisol); 37 °C, ≥4 h, PBS with gelatin; separation at 0 °C; plasma 1/50; mean of four runs; error SEM
T3 construct: gene SERPINA6; native protein in charcoal-stripped plasma, not purified
T3 sequence (A0A8D2GQE2 23-403): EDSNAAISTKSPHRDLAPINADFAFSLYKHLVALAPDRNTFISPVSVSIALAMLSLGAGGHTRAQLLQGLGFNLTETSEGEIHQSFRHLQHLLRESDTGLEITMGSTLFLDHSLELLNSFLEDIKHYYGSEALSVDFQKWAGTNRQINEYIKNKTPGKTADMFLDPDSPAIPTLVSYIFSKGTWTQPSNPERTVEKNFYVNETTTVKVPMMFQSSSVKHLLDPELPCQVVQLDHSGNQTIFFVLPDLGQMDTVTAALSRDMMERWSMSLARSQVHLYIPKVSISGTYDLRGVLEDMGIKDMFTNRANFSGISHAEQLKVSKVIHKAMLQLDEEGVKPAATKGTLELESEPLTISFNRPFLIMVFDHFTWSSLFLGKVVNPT
Excerpt: radioligand saturation binding, dextran-coated charcoal separation on corticosteroid-binding globulin (CBG), Arctic ground squirrel

[4] = biological target: T4, corticosteroid-binding globulin (CBG), Siberian tiger (Panthera tigris, UniProt A0A8C9K299); conditions: labelled compound ([1,2,6,7-3H]cortisol); 37 °C, ≥4 h, PBS with gelatin; separation at 0 °C; serum 1/50; non-specific binding subtracted; error SEM
T4 construct: native protein in charcoal-stripped serum (Toronto Zoo), not purified
T4 sequence (A0A8C9K299 23-403): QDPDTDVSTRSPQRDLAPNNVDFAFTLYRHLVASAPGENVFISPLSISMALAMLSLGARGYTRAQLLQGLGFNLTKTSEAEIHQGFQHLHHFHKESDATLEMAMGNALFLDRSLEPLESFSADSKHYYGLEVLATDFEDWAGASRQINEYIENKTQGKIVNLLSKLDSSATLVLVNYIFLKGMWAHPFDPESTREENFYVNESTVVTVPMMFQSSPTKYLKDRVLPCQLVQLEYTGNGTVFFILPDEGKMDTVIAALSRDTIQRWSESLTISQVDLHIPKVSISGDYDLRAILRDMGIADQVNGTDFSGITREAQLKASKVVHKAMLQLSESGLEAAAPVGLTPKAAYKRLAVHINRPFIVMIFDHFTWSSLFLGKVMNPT
Excerpt: radioligand saturation binding, dextran-coated charcoal separation on corticosteroid-binding globulin (CBG), Siberian tiger

[5] = biological target: T5, corticosteroid-binding globulin (CBG), Arctic wolf (Canis lupus, UniProt A0A8I3MUM2); conditions: labelled compound ([1,2,6,7-3H]cortisol); 37 °C, ≥4 h, PBS with gelatin; separation at 0 °C; serum 1/50; non-specific binding subtracted; error SEM
T5 construct: gene SERPINA6; native protein in charcoal-stripped serum (Toronto Zoo), not purified
T5 sequence (A0A8I3MUM2 23-404): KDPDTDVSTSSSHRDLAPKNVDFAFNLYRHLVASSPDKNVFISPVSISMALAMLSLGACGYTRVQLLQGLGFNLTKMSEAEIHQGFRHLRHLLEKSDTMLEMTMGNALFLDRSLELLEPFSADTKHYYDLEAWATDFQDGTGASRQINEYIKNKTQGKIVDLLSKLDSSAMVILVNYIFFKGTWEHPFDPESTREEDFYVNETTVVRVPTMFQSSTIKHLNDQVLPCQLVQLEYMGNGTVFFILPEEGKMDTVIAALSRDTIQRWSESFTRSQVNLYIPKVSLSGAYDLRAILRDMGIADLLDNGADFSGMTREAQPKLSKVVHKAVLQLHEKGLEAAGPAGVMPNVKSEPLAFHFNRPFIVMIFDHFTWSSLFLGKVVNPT
Excerpt: radioligand saturation binding, dextran-coated charcoal separation on corticosteroid-binding globulin (CBG), Arctic wolf

[6] = biological target: T6, corticosteroid-binding globulin (CBG), alpaca (Vicugna pacos, UniProt A0A6I9IEG0); conditions: labelled compound ([1,2,6,7-3H]cortisol); 37 °C, ≥4 h, PBS with gelatin; separation at 0 °C; serum 1/50; non-specific binding subtracted; error SEM
T6 construct: gene SERPINA6; native protein in charcoal-stripped serum (Toronto Zoo), not purified
T6 sequence (A0A6I9IEG0 18-405): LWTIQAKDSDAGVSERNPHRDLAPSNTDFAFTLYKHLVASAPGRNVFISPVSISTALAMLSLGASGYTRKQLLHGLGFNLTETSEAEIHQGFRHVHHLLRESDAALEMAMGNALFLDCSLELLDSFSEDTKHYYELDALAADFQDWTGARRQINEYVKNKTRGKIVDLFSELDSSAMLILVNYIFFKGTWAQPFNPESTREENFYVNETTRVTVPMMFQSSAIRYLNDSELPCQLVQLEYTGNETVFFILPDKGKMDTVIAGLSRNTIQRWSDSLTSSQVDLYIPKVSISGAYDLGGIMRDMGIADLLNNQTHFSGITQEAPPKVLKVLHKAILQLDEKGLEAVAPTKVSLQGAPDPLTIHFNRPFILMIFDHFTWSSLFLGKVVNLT
Excerpt: radioligand saturation binding, dextran-coated charcoal separation on corticosteroid-binding globulin (CBG), alpaca

[7] = biological target: T7, corticosteroid-binding globulin (CBG), Soay sheep (Ovis aries, UniProt P49920); conditions: labelled compound ([1,2,6,7-3H]cortisol); 37 °C, ≥4 h, PBS with gelatin; separation at 0 °C; plasma 1/50; error SEM
T7 construct: gene SERPINA6; native protein in charcoal-stripped plasma, not purified
T7 sequence (P49920 23-430): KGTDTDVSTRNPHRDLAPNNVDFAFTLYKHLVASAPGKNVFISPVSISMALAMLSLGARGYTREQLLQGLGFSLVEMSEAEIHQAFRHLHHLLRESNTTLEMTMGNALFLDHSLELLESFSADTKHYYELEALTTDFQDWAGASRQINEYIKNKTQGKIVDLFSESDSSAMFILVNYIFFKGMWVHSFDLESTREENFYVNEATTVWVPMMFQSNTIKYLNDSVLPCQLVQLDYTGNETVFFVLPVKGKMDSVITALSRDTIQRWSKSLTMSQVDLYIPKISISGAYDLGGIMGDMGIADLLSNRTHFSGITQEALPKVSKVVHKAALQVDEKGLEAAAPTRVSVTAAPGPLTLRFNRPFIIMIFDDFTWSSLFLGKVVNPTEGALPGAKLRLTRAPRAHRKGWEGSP
Excerpt: radioligand saturation binding, dextran-coated charcoal separation on corticosteroid-binding globulin (CBG), Soay sheep

[8] = biological target: T8, corticosteroid-binding globulin (CBG), Bactrian camel (Camelus bactrianus, UniProt A0A9W3H1V5); conditions: labelled compound ([1,2,6,7-3H]cortisol); 37 °C, ≥4 h, PBS with gelatin; separation at 0 °C; serum 1/50; non-specific binding subtracted; error SEM
T8 construct: gene LOC105079894; native protein in charcoal-stripped serum (Toronto Zoo), not purified
T8 sequence (A0A9W3H1V5 24-405 limits assumed): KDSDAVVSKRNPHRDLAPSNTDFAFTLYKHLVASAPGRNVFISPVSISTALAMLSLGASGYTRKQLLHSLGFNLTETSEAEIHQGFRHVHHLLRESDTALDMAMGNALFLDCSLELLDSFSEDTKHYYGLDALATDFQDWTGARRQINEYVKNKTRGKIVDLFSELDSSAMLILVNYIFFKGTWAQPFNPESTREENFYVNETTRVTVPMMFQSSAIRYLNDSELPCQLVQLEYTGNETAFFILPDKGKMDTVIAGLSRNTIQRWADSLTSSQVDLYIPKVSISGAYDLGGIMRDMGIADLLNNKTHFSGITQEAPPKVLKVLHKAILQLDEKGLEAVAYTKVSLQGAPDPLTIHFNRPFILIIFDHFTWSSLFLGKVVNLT
Excerpt: radioligand saturation binding, dextran-coated charcoal separation on corticosteroid-binding globulin (CBG), Bactrian camel

[9] = biological target: T9, corticosteroid-binding globulin (CBG), cheetah (Acinonyx jubatus, UniProt A0A6I9ZWD2); conditions: labelled compound ([1,2,6,7-3H]cortisol); 37 °C, ≥4 h, PBS with gelatin; separation at 0 °C; serum 1/50; error SEM
T9 construct: gene LOC106977455; native protein in charcoal-stripped serum (Toronto Zoo), not purified
T9 sequence (A0A6I9ZWD2 23-404): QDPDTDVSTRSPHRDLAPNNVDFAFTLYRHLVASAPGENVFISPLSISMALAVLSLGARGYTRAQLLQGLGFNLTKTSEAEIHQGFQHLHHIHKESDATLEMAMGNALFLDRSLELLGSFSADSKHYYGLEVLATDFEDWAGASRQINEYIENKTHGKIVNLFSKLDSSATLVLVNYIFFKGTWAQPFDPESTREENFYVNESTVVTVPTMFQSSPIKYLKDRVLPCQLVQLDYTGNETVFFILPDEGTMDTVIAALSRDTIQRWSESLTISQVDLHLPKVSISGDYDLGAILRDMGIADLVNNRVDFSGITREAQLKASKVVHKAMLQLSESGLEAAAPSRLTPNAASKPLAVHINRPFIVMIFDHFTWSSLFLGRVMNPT
Excerpt: radioligand saturation binding, dextran-coated charcoal separation on corticosteroid-binding globulin (CBG), cheetah

SMILES	Kd [1]	Kd [2]	Kd [3]	Kd [4]	Kd [5]	Kd [6]	Kd [7]	Kd [8]	Kd [9]
C[C@]12C[C@H](O)[C@H]3[C@@H](CCC4=CC(=O)CC[C@@]43C)[C@@H]1CC[C@@H]2C(=O)CO [B, corticosterone]	5.4 ± 1.2 nM	4.9 ± 0.61 nM							
C[C@]12CCC(=O)C=C1CC[C@@H]1[C@@H]2[C@@H](O)C[C@@]2(C)[C@H]1CC[C@]2(O)C(=O)CO [F, cortisol]			4 ± 0.4 nM	0.7 ± 0.19 nM	0.8 ± 0.11 nM	0.6 ± 0.15 nM	1.7 ± 0.55 nM	1 ± 0.16 nM	8 ± 2.4 nM
